What was measured:
[1] = tested on: Sprague-Dawley rats; experiment: Blood pressure study in L-NAME (nitric oxide deficient) model of hypertension, dietary OPP; assay type: in vivo, rat
Excerpt: In order to determine the effect of OPP in blood pressure reduction, a method utilizing a nitric oxide (NO) deficient model of hypertension was used. This animal model involves the inhibition of endogenous NO production with L-NAME (N^G-nitro-L-arginine methyl ester) that leads to elevation in BP.
12 weeks old Sprague-Dawley rats were fed a standard laboratory rat diet, formulated to contain low n-3 polyunsaturated fatty acids (Glen Forrest Stock feeders, Glen Forrest, W.A., Australia). The OPP was provided as a drink at a rate of 30 ml/rat/day. OPP were provided at two different strengths—as liquid (1500 GAE) and in a concentrated liquid form at 3000 GAE (prepared using the freeze-dried preparation at 30,000 GAE). Rats were pre-treated for four weeks prior to challenge with L-NAME. […]
BP was monitored fortnightly by standard photoelectric tail-cuff procedure (IITC, Life Sciences, Woodlands Hills, Calif., USA) as described in detail previously. […] The pulse was detected as the cuff pressure was reduced and the pressure at which the first pulse detected was taken as the systolic blood pressure and computed automatically (IITC software package). The ambient temperature was carefully controlled (30° C.) and the average of 3-4 readings was taken as the final reading.

[2] = tested on: human LDL; experiment: Copper-mediated LDL oxidation, conjugated diene formation; assay type: biochemical; conditions: for Lag time (mins), conjugated diene formation: control LDL 67 ± 12, means ± SD
Protocol: Blood from six healthy normocholesterolemic adult volunteers was collected into vacutainer tubes containing EDTA and centrifuged (1000×g for 15 min) to isolate plasma. LDL was isolated by density gradient centrifugation in a Beckman Ultracentrifuge using a 50.2 Ti rotor, based on the method of Sundram et al. (2). The LDL layer following sequential isolation at density 1.063 kg/L was removed and dialyzed against 4 L of PBS, pH 7.4 and purged with nitrogen for 12-18 h. After dialysis, the cholesterol concentration in the pooled LDL sample was determined using an automated Cholesterol assay. The LDL fraction was used immediately or immediately stored under nitrogen at 4° C. and analyzed for LDL oxidation within 48 h.
To evaluate the ability of OPP to inhibit copper (Cu) mediated LDL oxidation, conjugated dienes (CD) were continually monitored at 5-min intervals at 37° C. by UV absorption at 234 nm. LDL oxidation was initiated by addition of copper sulfate at a final concentration of 6 μmol/L to 90 μg of LDL cholesterol in a final volume of 1 mL. The purified test compounds (catechin obtained from Sigma Chemical) and OPP extracts were added immediately before the addition of the oxidant. The extracts were added at a final concentration range of 0.25-1.0 μmol/L GAB and the purified compounds at a final concentration of 0.25 or 0.5 μmol/L. All LDL oxidations were performed in triplicate. The lag time in the presence or absence of the test compounds was determined as the intercept of the slopes for the lag and propagation phases. This was compared with the control oxidized LDL to determine the percentage of LDL oxidation inhibition.

Compound	initial rise in BP on introduction of L-NAME ([1]; L-NAME 10 mg/Kg, OPP pre-treatment 4 weeks) [mmHg]	final BP values ([1]; conclusion of experiment, L-NAME 10 then 15 mg/Kg, OPP drink 30 ml/rat/day, tail-cuff systolic BP, n=12) [mmHg]	Lag time (mins), conjugated diene formation ([2]; 0.25 μmol/L) [min]	LDL lag phase lengthened / increase in lag time relative to control LDL ([2]; 0.5 μmol/L) [%]	Lag time (mins), conjugated diene formation ([2]; 0.5 μmol/L) [min]
COC(=O)[C@@H](N)CCCNC(=N)N[N+](=O)[O-] [L-NAME, N^G-nitro-L-arginine methyl ester]	18	176±2.5			
catechin			87 ± 13	55	104 ± 10

— patent US8771764B2, “Composition and method for improving vascular health” (Malaysian Palm Oil Board, priority 2009, dated 2014)
